The numbers were not newly measured in article PMC5409479 (The Journal of Biological Chemistry, 2017), which cites them from elsewhere.

Data set [1] relates to GCGR, mutation of Trp-36 to Ala. The note with it: GCGR Trp-36 to Ala; significantly increased expression. The source says: (§1) This could also move residues Thr-35, Trp-39, Tyr-88, Leu-89, Pro-90, and Trp-91 away from the peptide interface observed in the crystal structure, while bringing Trp-33 and Arg-40 into closer proxim ...
The next data set deals with GLP-1R L89A. Also on record: method as in PMID 19861722.
Data set [2] relates to GLP-1R, mutation of Arg-40 to Ala.
Source text: as §1

Data set [3] relates to GLP-1R, mutation of Trp-39 to Ala or Phe. The note with it: expression comparable with wild type.
Source text: as §1

Data set [4] relates to GLP-1R, mutation of Glu-125 to Ala. Also on record: method as in PMID 19815559, PMID 21868452, PMID 20529866.

Regarding GCG: glucagon, the “GCG binding (in words)” value in data set [1] is on record as “no detectable binding of GCG”.
On to GLP-1(7–36)NH2: a high affinity agonist, for which the “affinity and agonism (in words)” value in the data set with GLP-1R is reported as “a high affinity agonist”.
For GLP-1(9–36)NH2, the “affinity and agonism (in words)” value in the data set on GLP-1R is “a low affinity partial agonist”.
GLP-1: cognate ligand of GLP-1R: the “GLP-1 peptide binding (in words)” value in the data set with GLP-1R L89A is given as “abolishing GLP-1 peptide binding”. Besides, the “binding affinity of GLP-1 (in words)” value in data set [2] is reported as “small decrease in binding affinity of GLP-1”. Also, the “GLP-1 binding (in words)” value in data set [3] is “loss of detectable GLP-1 binding”. Also, the “GLP-1 binding affinity or function (in words)” value in data set [4] is “did not significantly impact GLP-1 binding affinity or function”.
As to exendin(9–39), in the data set on GLP-1R, the “affinity and agonism (in words)” value was “a high affinity antagonist”.
